For this assay, the system named is adventitious root formation in control and PtrXB38-OE micro-cuttings. Briefly: Adventitious root formation of micro-propagated cuttings in ½ MS medium with chemical treatment. The assay is classed as in vivo, P. tremula×P. alba ‘INRA 717-1B4’. The procedure: Plant Growth Conditions: The tissue culture plants were maintained in ½ MS media (½ MS basal salts, 20 g/L sucrose, 1× Gamborg's B5 vitamin mixture, 0.3% Gelzan) supplemented with 0.1 mg/L IBA and grown in growth chambers (16 h:8 h, light:dark) with white fluorescent light (100 μmol m^−2 s^−1) at 22° C. To assess adventitious root development phenotype, 2-3 cm length of shoot tops from 1-month-old tissue culture saplings were excised and placed in fresh medium for root induction. Root number was counted 12 days after subculture. For chemical treatment, filter-sterilized auxin transport inhibitor naphthylphthalamic acid (NPA) and ethylene biosynthesis inhibitor aminoethoxyvinylglycine (AVG) were added in the ½ MS medium.

For the compound `O=C(O)c1ccccc1C(=O)Nc1cccc2ccccc12` [NPA, naphthylphthalamic acid], the root formation result (5 μM NPA, both control and PtrXB38-OE micro-cuttings) is “completely blocked root formation”. The “promotive effect of PtrXB38 on AR formation (adventitious root number)” value (increasing NPA concentrations (0.2 μM and 1 μM, FIG. 3D), PtrXB38-OE plants) is listed as “gradually attenuated”.

The record behind these values is patent US12703870B2, “Regulation of root development” (UT-Battelle, LLC, priority 2023, dated 2026).
